From patent US12157746B2, “Tetrahydro-1H-pyrazino[2,1-a]isoindolylquinoline compounds for the treatment of autoimmune disease” (F. HOFFMANN-LA ROCHE AG, priority 2018, dated 2024) come the findings set out here.

Each structure is given as a SMILES string. pIC50: −log10 of the molar value.

For the test, the target named is T1, human TLR7 (Homo sapiens, UniProt Q9NYK1).
T1 sequence (Q9NYK1 27-1049): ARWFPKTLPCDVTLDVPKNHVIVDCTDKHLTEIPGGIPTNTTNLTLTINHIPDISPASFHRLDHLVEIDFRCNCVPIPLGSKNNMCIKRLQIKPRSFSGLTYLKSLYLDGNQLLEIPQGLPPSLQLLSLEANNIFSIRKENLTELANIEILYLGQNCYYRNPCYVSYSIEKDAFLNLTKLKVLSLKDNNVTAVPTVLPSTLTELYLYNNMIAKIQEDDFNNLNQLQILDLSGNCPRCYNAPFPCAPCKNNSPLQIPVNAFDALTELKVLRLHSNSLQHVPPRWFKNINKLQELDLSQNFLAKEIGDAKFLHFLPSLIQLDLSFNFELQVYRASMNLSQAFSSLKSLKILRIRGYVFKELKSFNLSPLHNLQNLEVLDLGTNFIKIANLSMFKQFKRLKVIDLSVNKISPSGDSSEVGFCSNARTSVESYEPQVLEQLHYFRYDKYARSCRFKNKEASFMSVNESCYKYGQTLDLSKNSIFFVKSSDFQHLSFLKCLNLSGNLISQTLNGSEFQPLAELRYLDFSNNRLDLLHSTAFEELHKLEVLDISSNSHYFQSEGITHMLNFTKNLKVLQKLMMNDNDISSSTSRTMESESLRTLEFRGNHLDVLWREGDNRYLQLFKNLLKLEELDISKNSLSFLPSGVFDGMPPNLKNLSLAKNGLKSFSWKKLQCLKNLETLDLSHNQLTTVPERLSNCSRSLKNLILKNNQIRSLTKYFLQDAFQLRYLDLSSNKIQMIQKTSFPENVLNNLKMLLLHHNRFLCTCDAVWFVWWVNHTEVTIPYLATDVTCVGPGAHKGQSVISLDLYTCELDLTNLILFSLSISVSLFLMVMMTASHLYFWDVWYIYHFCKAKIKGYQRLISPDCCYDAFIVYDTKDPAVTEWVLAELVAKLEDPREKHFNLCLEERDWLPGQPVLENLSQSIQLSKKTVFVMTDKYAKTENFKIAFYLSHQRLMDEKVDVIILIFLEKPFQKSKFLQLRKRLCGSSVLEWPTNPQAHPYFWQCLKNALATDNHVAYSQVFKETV
As to the kind of experiment: HEK293-Blue-hTLR-7 cells assay. The test is classed as cell-based. The following applies: HEK293-Blue-hTLR7 cells, R848 stimulation, 20 hrs, SEAP reporter; read-out: HEK/hTLR7 IC50. In a few lines:
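HEK293-Blue-hTLR7 cells (NF-κB/AP-1-driven SEAP reporter) incubated with serially diluted compound (1% DMSO final) and R848 agonist for 20 h at 37 °C. Supernatant SEAP measured with QUANTI-Blue (2 h, 37 °C) by absorbance at 620-655 nm; antagonism seen as reduced reporter.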
Regarding `C[C@@H]1CN(c2ccc(C#N)c3ncccc23)C[C@@H]2c3ccc(N4C[C@@H](N)[C@](C)(O)C4)cc3CN12` [Example 45A, 5-[(4R,10bS)-8-[(3R,4R)-4-amino-3-hydroxy-3-methyl-pyrrolidin-1-yl]-4-methyl-3,4,6,10b-tetrahydro-1H-pyrazino[2,1-a]isoindol-2-yl]quinoline-8-carbonitrile], the pIC50 is 8.46.

Consider `CO[C@H]1CCN(c2ccc3c(c2)CN2[C@H](C)CN(c4ccc(C#N)n5nccc45)C[C@H]32)C[C@H]1N` [Example 106, 4-[(4R,10bS)-8-[(3R,4S)-3-amino-4-methoxy-1-piperidyl]-4-methyl-3,4,6,10b-tetrahydro-1H-pyrazino[2,1-a]isoindol-2-yl]pyrazolo[1,5-a]pyridine-7-carbonitrile], for which the pIC50 is 7.65.

For the molecule `C[C@@H]1CN(c2ccc(C#N)c3ncccc23)C[C@@H]2c3ccc(OCCN(C)C)cc3CN12` [Example 25, 5-[(4R,10bS)-8-[2-(dimethylamino)ethoxy]-4-methyl-3,4,6,10b-tetrahydro-1H-pyrazino[2,1-a]isoindol-2-yl]quinoline-8-carbonitrile], the pIC50 is more than 8.49.

Take `C[C@@H]1CN(c2ccc(C#N)c3ncccc23)C[C@@H]2c3ccc(N4C[C@@H](N)[C@H](O)C4)cc3CN12` (single isomer, unassigned) [Example 40B]: the pIC50 was 8.37.

With `C[C@@H]1CN(c2ccc(C#N)c3ncccc23)C[C@@H]2c3ccc(N4C[C@@H](N)[C@H](F)C4)cc3CN12` [Example 48, 5-[(4R,10bS)-8-[(3R,4R)-3-amino-4-fluoro-pyrrolidin-1-yl]-4-methyl-3,4,6,10b-tetrahydro-1H-pyrazino[2,1-a]isoindol-2-yl]quinoline-8-carbonitrile], the pIC50 is 8.24.

Regarding `COC1CN(c2ccc3c(c2)CN2C3CN(c3ccc(C#N)c4ncccc34)C[C@H]2C)CC1N` (single isomer, unassigned) [Example 16B], the pIC50 is 8.35.

For `CO[C@@H]1CN(c2ccc3c(c2)CN2[C@H](C)CN(c4ccc(C#N)n5nccc45)C[C@H]32)CC[C@H]1N` [Example 104, 4-[(4R,10bS)-8-[(3R,4R)-4-amino-3-methoxy-1-piperidyl]-4-methyl-3,4,6,10b-tetrahydro-1H-pyrazino[2,1-a]isoindol-2-yl]pyrazolo[1,5-a]pyridine-7-carbonitrile], the pIC50 was 8.21.

Consider `C[C@@H]1CN(c2ccc(C#N)c3ncccc23)C[C@@H]2c3ccc(N4C[C@H](N)[C@@H](O)C4)cc3CN12` [Example 40A, 5-[(4R,10bS)-8-[(3S,4S)-3-amino-4-hydroxy-pyrrolidin-1-yl]-4-methyl-3,4,6,10b-tetrahydro-1H-pyrazino[2,1-a]isoindol-2-yl]quinoline-8-carbonitrile], for which the pIC50 is 8.43.

As to `C[C@@H]1CN(c2ccc(C#N)c3ncccc23)C[C@@H]2c3ccc(N4CC5(CNC5)C4)cc3CN12` [Example 36, 5-[(4R,10bS)-8-(2,6-diazaspiro[3.3]heptan-2-yl)-4-methyl-3,4,6,10b-tetrahydro-1H-pyrazino[2,1-a]isoindol-2-yl]quinoline-8-carbonitrile], the pIC50 was 8.48.

Take `C[C@@H]1CN(c2ccc(C#N)c3ncccc23)C[C@@H]2c3cccc(N4CCNCC4)c3CN12` [Example 8, 5-[(4R,10bS)-4-methyl-7-piperazin-1-yl-3,4,6,10b-tetrahydro-1H-pyrazino[2,1-a]isoindol-2-yl]quinoline-8-carbonitrile]: the pIC50 is more than 8.49.

Take `CN[C@H]1CN(c2ccc3c(c2)CN2[C@H](C)CN(c4ccc(C#N)c5ncccc45)C[C@H]32)C[C@@H]1O` [Example 42, 5-[(4R,10bS)-8-[(3S,4S)-3-hydroxy-4-(methylamino)pyrrolidin-1-yl]-4-methyl-3,4,6,10b-tetrahydro-1H-pyrazino[2,1-a]isoindol-2-yl]quinoline-8-carbonitrile]: the pIC50 is more than 8.49.

As for `[2H]c1ccc2c(N3C[C@@H](C)N4Cc5cc(N[C@H]6CNC[C@H]6F)ccc5[C@H]4C3)ccc(C#N)c2n1` [Example 91, 5-[(4R,10bS)-8-[[(3S,4R)-4-fluoropyrrolidin-3-yl]amino]-4-methyl-3,4,6,10b-tetrahydro-1H-pyrazino[2,1-a]isoindol-2-yl]-2-deuterio-quinoline-8-carbonitrile], the pIC50 is 8.77.

As to `C[C@@H]1CN(c2ccc(C#N)c3ncccc23)C[C@@H]2c3ccc(N4CCNC[C@H]4CO)cc3CN12` [Example 11, 5-[(4R,10S)-8-[(2S)-2-(hydroxymethyl)piperazin-1-yl]-4-methyl-3,4,6,10b-tetrahydro-1H-pyrazino[2,1-a]isoindol-2-yl]quinoline-8-carbonitrile], the pIC50 was 8.47.

In the case of `C[C@@H]1CN(c2ccc(C#N)c3nccnc23)C[C@@H]2c3ccc(N4CCNCC4)cc3CN12` [Example 7, 8-[(4R,10bS)-4-methyl-8-piperazin-1-yl-3,4,6,10b-tetrahydro-1H-pyrazino[2,1-a]isoindol-2-yl]quinoxaline-5-carbonitrile], the pIC50 was more than 8.49.

Consider `C[C@@H]1CN(c2ccc3c(c2)CN2[C@H](C)CN(c4ccc(C#N)n5nccc45)C[C@H]32)CCN1` [Example 97, 4-[(4R,10bS)-4-methyl-8-[(3R)-3-methylpiperazin-1-yl]-3,4,6,10b-tetrahydro-1H-pyrazino[2,1-a]isoindol-2-yl]pyrazolo[1,5-a]pyridine-7-carbonitrile], for which the pIC50 is 8.30.

Take `C[C@@H]1CN(c2ccc(C#N)c3ncccc23)C[C@@H]2c3ccc(N4CCNC[C@@](C)(O)C4)cc3CN12` [Example 55B, 5-[(4R,10bS)-8-[(6R)-6-hydroxy-6-methyl-1,4-diazepan-1-yl]-4-methyl-3,4,6,10b-tetrahydro-1H-pyrazino[2,1-a]isoindol-2-yl]quinoline-8-carbonitrile]: the pIC50 is 7.79.

Take `C[C@@H]1CN(c2ccc(C#N)c3ncccc23)C[C@@H]2c3ccc(N4CC5(CCN5)C4)cc3CN12` [Example 37, 5-[(4R,10bS)-8-(1,6-diazaspiro[3.3]heptan-6-yl)-4-methyl-3,4,6,10b-tetrahydro-1H-pyrazino[2,1-a]isoindol-2-yl]quinoline-8-carbonitrile]: the pIC50 is more than 8.49.

On to `C[C@@H]1CN(c2ccc(C#N)c3ncccc23)C[C@@H]2c3ccc(C4CNC4)cc3CN12` [Example 29, 5-[(4R,10bS)-8-(azetidin-3-yl)-4-methyl-3,4,6,10b-tetrahydro-1H-pyrazino[2,1-a]isoindol-2-yl]quinoline-8-carbonitrile], for which the pIC50 was more than 8.49.

`C[C@@H]1CN(c2ccc(C#N)c3ncccc23)C[C@@H]2c3ccc(N4CC[C@@H](N)C4)cc3CN12` [Example 20, 5-[(4R,10bS)-8-[(3R)-3-aminopyrrolidin-1-yl]-4-methyl-3,4,6,10b-tetrahydro-1H-pyrazino[2,1-a]isoindol-2-yl]quinoline-8-carbonitrile]: the pIC50 was 8.47.

On to `C[C@@H]1CN(c2ccc(C#N)c3ncccc23)C[C@@H]2c3ccc(N[C@@H]4CNC[C@@H]4F)cc3CN12` [Example 32, 5-[(4R,10bS)-8-[[(3R,4S)-4-fluoropyrrolidin-3-yl]amino]-4-methyl-3,4,6,10b-tetrahydro-1H-pyrazino[2,1-a]isoindol-2-yl]quinoline-8-carbonitrile], for which the pIC50 was 8.46.

`C[C@@H]1CN(c2ccc(C#N)n3nccc23)C[C@@H]2c3ccc(N4C[C@H](N)[C@@H](O)C4)cc3CN12` [Example 111, 4-[(4R,10bS)-8-[(3S,4S)-3-amino-4-hydroxy-pyrrolidin-1-yl]-4-methyl-3,4,6,10b-tetrahydro-1H-pyrazino[2,1-a]isoindol-2-yl]pyrazolo[1,5-a]pyridine-7-carbonitrile]: the pIC50 was 7.85.

Consider `C[C@@H]1CN(c2ccc(C#N)c3ncccc23)C[C@@H]2c3ccc(N4CC(C)(N)C4)cc3CN12` [Example 39, 5-[(4R,10bS)-8-(3-amino-3-methyl-azetidin-1-yl)-4-methyl-3,4,6,10b-tetrahydro-1H-pyrazino[2,1-a]isoindol-2-yl]quinoline-8-carbonitrile], for which the pIC50 was 8.52.

For the molecule `C[C@@H]1CN(c2ccc(C#N)n3nccc23)C[C@@H]2c3ccc(N4CCNCC4)cc3CN12` [Example 5, 4-[(4R,10bS)-4-methyl-8-piperazin-1-yl-3,4,6,10b-tetrahydro-1H-pyrazino[2,1-a]isoindol-2-yl]pyrazolo[1,5-a]pyridine-7-carbonitrile], the pIC50 is 8.31.
